According to patent publication US20050019268A1, “Spray containing ubiquinone Qn” (MSE Pharmazeutika GmbH, priority 1999, published 2005):

Tested on: migraine and tension headaches
Assay: treatment of pain from migraine and tension headaches with Q-10 (oral capsules vs nasal formulation)
Format: in vivo
Conditions: oral administration of from 600 to 800 mg of Q-10 in the form of capsules
Description: The spray according to the invention is preferably an oral or nasal spray, so that the administration of ubiquinone Qn or ubiquinone Qn precursors can be effected on an inhalative or intranasal route. The spray according to the invention is useful, in particular, for the treatment of pain conditions as encountered in migraine and neuropathy, in neural disorders, such as depressions, psychoses, lack of concentration, and in neurodegenerative diseases, such as Alzheimer's, Parkinson's, Huntington's, multiple sclerosis and cerebral paresis. The application as an oral or nasal spray seems to accelerate the transport of ubiquinone Qn or its precursors through the blood-brain barrier. […] In principle, however, doses of as high as 1000 mg can be employed.

With `COC1=C(OC)C(=O)C(C/C=C(\C)CC/C=C(\C)CC/C=C(\C)CC/C=C(\C)CC/C=C(\C)CC/C=C(\C)CC/C=C(\C)CC/C=C(\C)CC/C=C(\C)CCC=C(C)C)=C(C)C1=O` [Q-10, 2,3-dimethoxy-5-methyl-6-deca-prenyl-1,4-benzoquinone] the effect on migraine was “virtually no effect”.
